Publication PMC2263054, “Functional evolution of the vitamin D and pregnane X receptors” (BMC Evolutionary Biology, 2007)
Read-outs that look alike come from different tables or passages of the source.

How the values were obtained:
[1] = tested on: ethoxyresorufin O-deethylase (EROD) activity (CYP1A-like activity); experiment: EROD assay in zebrafish primary hepatocytes; conditions: zebrafish primary hepatocytes; DIM at concentrations of 2 μM and greater
Method: The cells are cultured at 26°C in ambient atmosphere.

Zebrafish VDR = biological target: T1, Zebrafish VDR (Danio rerio, UniProt Q9PTN2); experiment: luciferase reporter transactivation assay in HepG2-NTCP cells, GAL4/zfVDR LBD chimera with tk-UAS-Luc; assay type: cell-based; conditions: for Effect on zebrafish VDR: screening for activators, at least three concentrations of each drug; for Zebrafish VDR EC50 ± SD / EC50: HepG2-NTCP cells, luciferase reporter; for Zebrafish VDR EC50 ± SD: unit not given, also cells saying No effect; for EC50: read-out: Zebrafish VDR EC50 ± SD; for Zebrafish VDR relative efficacy: relative to maximal reference compound (1 μM calcitriol, efficacy = 1.0)
T1 sequence (Q9PTN2 121-453): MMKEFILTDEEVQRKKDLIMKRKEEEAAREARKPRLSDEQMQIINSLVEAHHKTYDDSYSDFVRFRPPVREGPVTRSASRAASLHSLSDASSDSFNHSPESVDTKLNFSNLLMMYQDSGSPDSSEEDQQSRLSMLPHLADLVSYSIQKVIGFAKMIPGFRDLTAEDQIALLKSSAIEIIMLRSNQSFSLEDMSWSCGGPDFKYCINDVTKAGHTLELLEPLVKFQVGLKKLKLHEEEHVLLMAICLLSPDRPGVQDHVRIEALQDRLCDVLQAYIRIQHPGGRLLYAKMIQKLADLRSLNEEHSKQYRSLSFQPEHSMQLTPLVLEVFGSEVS

Xenopus laevis VDR = biological target: T2, Xenopus laevis VDR (Xenopus laevis, UniProt O13124); experiment: luciferase reporter transactivation assay in HepG2-NTCP cells, GAL4/xlVDR LBD chimera with tk-UAS-Luc; assay type: cell-based; conditions: for Effect on Xenopus laevis VDR: screening for activators, at least three concentrations of each drug; for Xenopus VDR EC50 ± SD / EC50: HepG2-NTCP cells, luciferase reporter; for Xenopus VDR EC50 ± SD: unit not given, also cells saying No effect; for EC50: read-out: Xenopus VDR EC50 ± SD; for Xenopus VDR relative efficacy: relative to maximal reference compound (1 μM calcitriol, efficacy = 1.0)
T2 sequence (O13124 90-422): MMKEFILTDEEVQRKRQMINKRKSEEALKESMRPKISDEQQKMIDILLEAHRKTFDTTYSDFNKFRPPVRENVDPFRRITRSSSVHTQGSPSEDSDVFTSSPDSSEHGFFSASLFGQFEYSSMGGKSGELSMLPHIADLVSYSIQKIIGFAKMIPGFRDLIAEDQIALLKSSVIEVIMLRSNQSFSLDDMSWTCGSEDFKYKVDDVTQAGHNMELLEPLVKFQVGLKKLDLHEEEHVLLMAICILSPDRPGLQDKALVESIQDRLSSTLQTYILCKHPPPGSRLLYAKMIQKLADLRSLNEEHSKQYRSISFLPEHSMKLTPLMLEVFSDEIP

Sea lamprey VDR = biological target: T3, Sea lamprey VDR (Petromyzon marinus, UniProt Q7ZZY9); assay type: cell-based; conditions: for Effect on sea lamprey VDR: screening for activators, at least three concentrations of each drug; for EC50: read-out: Sea lamprey VDR EC50 ± SD
T3 sequence (Q7ZZY9 92-406): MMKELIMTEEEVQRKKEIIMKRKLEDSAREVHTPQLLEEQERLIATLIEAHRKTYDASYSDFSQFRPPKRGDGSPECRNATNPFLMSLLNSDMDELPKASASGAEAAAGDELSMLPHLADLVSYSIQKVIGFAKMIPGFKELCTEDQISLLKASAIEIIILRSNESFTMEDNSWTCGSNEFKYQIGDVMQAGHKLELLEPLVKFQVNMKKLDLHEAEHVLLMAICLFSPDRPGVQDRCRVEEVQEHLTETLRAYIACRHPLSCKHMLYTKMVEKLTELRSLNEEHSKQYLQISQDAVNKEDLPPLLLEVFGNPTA

Mouse VDR = biological target: T4, Mouse VDR (Mus musculus, UniProt P48281); experiment: luciferase reporter transactivation assay in HepG2-NTCP cells, full-length mVDR with CYP3A4-PXRE-Luc; conditions: for EC50: read-out: Mouse VDR EC50 ± SD
T4 sequence (P48281 1-422): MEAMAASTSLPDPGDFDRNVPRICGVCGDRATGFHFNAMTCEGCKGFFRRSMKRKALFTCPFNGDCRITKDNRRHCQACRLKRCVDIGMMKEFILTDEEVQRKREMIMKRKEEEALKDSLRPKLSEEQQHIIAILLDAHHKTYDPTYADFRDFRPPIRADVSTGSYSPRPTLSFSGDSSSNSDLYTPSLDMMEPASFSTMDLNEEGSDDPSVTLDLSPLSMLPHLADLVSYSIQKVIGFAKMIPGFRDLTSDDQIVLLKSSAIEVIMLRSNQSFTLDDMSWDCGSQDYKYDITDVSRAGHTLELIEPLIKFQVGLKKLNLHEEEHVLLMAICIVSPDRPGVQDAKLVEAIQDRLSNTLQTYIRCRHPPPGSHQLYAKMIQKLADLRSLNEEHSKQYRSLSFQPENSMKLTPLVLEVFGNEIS

Human VDR = biological target: T5, Human VDR (Homo sapiens, UniProt P11473); experiment: luciferase reporter transactivation assay in HepG2-NTCP cells, full-length hVDR with CYP3A4-PXRE-Luc; conditions: for EC50: read-out: Human VDR EC50 ± SD
T5 sequence (P11473 1-427): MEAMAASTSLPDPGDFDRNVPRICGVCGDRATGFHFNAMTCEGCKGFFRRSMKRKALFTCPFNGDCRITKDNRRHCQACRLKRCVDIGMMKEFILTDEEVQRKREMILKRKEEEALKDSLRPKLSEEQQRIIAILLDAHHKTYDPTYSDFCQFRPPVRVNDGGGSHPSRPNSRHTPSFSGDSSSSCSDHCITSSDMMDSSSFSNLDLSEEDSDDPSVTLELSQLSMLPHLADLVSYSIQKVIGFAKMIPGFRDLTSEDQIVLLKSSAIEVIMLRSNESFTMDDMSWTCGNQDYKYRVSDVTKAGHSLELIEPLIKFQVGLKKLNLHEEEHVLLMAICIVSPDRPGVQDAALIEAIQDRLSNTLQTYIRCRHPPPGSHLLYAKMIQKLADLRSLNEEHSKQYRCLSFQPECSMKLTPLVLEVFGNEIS

[2] = tested on: testosterone 6β-hydroxylation; experiment: testosterone hydroxylation (HPLC) in sea lamprey primary hepatocytes; assay type: cell-based; conditions: concentration ranges per compound
Method: 100 μL of sample, calibration standard, or quality material standard were pipetted into separate microcentrifuge tubes and mixed with 100 μL of methanol. Samples were vortexed and centrifuged at 13,000 rpm for 4 min. The supernatant was then injected into the HPLC.
The flow rate was 1.2 mL/min and total run time was 25 min.

EROD activity = experiment: EROD assay in sea lamprey primary hepatocytes; conditions: 24–48 hr exposure
[3] = HepG2-NTCP cells, luciferase reporter, unit not given, also cells saying No effect
[4] = HepG2-NTCP cells, luciferase reporter
[5] = relative to maximal reference compound (0.5 μM calcitriol, efficacy = 1.0)

Molecule	Effect on zebrafish VDR (Zebrafish VDR)	Effect on Xenopus laevis VDR (Xenopus laevis VDR)	Effect on sea lamprey VDR (Sea lamprey VDR)	Ciona VDR/PXR EC50 ± SD (Ciona VDR/PXR; [3])	Zebrafish VDR EC50 ± SD (Zebrafish VDR)	Xenopus VDR EC50 ± SD (Xenopus laevis VDR)	Sea lamprey VDR EC50 ± SD (Sea lamprey VDR; [3])	Human VDR EC50 ± SD (Human VDR; [3])	effect on testosterone 6β-hydroxylation [2]	further results
c1ccc2c(Cc3c[nH]c4ccccc34)c[nH]c2c1 [3,3'-diindoylmethane]	No effect	No effect	No effect							effect on EROD activity [1]: caused a decrease in EROD activity
C[C@H](CCC(=O)NCC(=O)O)[C@H]1CC[C@H]2[C@@H]3CC[C@@H]4C[C@H](O)CC[C@]4(C)[C@H]3CC[C@]12C [Glycolithocholic acid]				No effect	No effect	No effect	No effect	No effect		Mouse VDR relative efficacy (Mouse VDR): 0.28
C[C@H](CCC(=O)O)[C@H]1CC[C@H]2[C@@H]3CC[C@@H]4CC(=O)CC[C@]4(C)[C@H]3CC[C@]12C [3-Ketolithocholic acid]	No effect	No effect	No effect		No effect	No effect	No effect			Ciona VDR/PXR EC50 ± SD (Ciona VDR/PXR): No effect; Mouse VDR EC50 ± SD (Mouse VDR): 20 ± 0.3 (0.58); Human VDR EC50 ± SD (Human VDR): 55 ± 8.1 (0.17)
CC(=O)[C@H]1CC[C@H]2[C@@H]3CC=C4C[C@@H](O)CC[C@]4(C)[C@H]3CC[C@]12C [Pregnenolone]	No effect	No effect	No effect						None of these compounds produced significant increases in testosterone 6β-hydroxylation	
Pregnenolone sulfate	No effect	No effect	No effect						None of these compounds produced significant increases in testosterone 6β-hydroxylation	
C[C@H](CCC(=O)O)[C@H]1CC[C@H]2[C@@H]3CC[C@@H]4C[C@H](OS(=O)(=O)O)CC[C@]4(C)[C@H]3CC[C@]12C [Lithocholic acid 3-sulfate]				No effect	No effect	No effect		No effect		Mouse VDR EC50 ± SD (Mouse VDR; [3]): No effect; Sea lamprey VDR EC50 ± SD (Sea lamprey VDR): No effect
C=C1CC[C@H](O)C/C1=C/C=C1\CCC[C@]2(C)[C@@H]([C@H](C)CCCC(C)(C)O)CC[C@@H]12 [25-Hydroxyvitamin D3]				No effect					None of these compounds produced significant increases in testosterone 6β-hydroxylation	Mouse VDR relative efficacy (Mouse VDR): 2.62; EC50 (Mouse VDR; [4]): 0.6 ± 0.1 µM; EC50 (Zebrafish VDR): 7.3 ± 0.8 µM; Zebrafish VDR relative efficacy (Zebrafish VDR): 0.91; EC50 (Xenopus laevis VDR): 11 ± 0.8 µM; Xenopus VDR relative efficacy (Xenopus laevis VDR): 0.67; Sea lamprey VDR relative efficacy (Sea lamprey VDR): 0.63; EC50 (Sea lamprey VDR; [4]): 19 ± 2.1 µM; Human VDR relative efficacy (Human VDR): 1.22; EC50 (Human VDR; HepG2-NTCP cells, luciferase reporter, unit M): 1.5 ± 0.2 µM
C[C@H](CCC(=O)NCCS(=O)(=O)O)[C@H]1CC[C@H]2[C@@H]3CC[C@@H]4C[C@H](O)CC[C@]4(C)[C@H]3CC[C@]12C [Taurolithocholic acid]				No effect	No effect	No effect	No effect	No effect		Mouse VDR relative efficacy (Mouse VDR; [5]): 0.23
C[C@]12CC[C@@H](O)C[C@@H]1CC[C@@H]1[C@@H]2CC[C@]2(C)C=CC[C@@H]12 [5α-androst-16-en-3α-ol]	No effect	No effect	No effect						None of these compounds produced significant increases in testosterone 6β-hydroxylation	
C[C@H](CCCO)[C@H]1CC[C@H]2[C@@H]3[C@H](O)C[C@H]4CC(=O)CC[C@]4(C)[C@H]3C[C@H](O)[C@]12C [3-keto-5α-petromyzonol]									None of these compounds produced significant increases in testosterone 6β-hydroxylation	
C=C1CC[C@H](O)C/C1=C/C=C1\CCC[C@]2(C)[C@@H]([C@H](C)CC[C@@H](O)C(C)(C)O)CC[C@@H]12 [24(R),25-(OH)2-Vitamin D3]				No effect						EC50 (Mouse VDR; [4]): 0.3 ± 0.02 µM; Mouse VDR relative efficacy (Mouse VDR; [5]): 1.7; EC50 (Zebrafish VDR): 0.7 ± 0.06 µM; Zebrafish VDR relative efficacy (Zebrafish VDR): 0.6; EC50 (Xenopus laevis VDR): 11 ± 1.7 µM; Xenopus VDR relative efficacy (Xenopus laevis VDR): 0.20; EC50 (Sea lamprey VDR; [4]): 5.6 ± 0.8 µM; Sea lamprey VDR relative efficacy (Sea lamprey VDR; [5]): 0.9; EC50 (Human VDR; [4]): 0.3 ± 0.02 µM; Human VDR relative efficacy (Human VDR; relative to maximal reference compound (1 μM calcitriol, efficacy = 1.0)): 0.9
CC(CCCOS(=O)(=O)O)[C@H]1CCC2C3C(C[C@H](O)[C@@]21C)[C@@]1(C)CC[C@@H](O)C[C@@H]1C[C@H]3O (stereo partly drawn) [5α-Petromyzonol 24-sulfate]				No effect	No effect	No effect	No effect	No effect	None of these compounds produced significant increases in testosterone 6β-hydroxylation	effect on EROD activity (EROD activity): did not alter EROD activity; Mouse VDR EC50 ± SD (Mouse VDR; [3]): No effect
